Experimental data taken from EPA's CvTdb concentration-time database.

Tests used:
Rat [1] = test: concentration in plasma after dosing; conditions: 1.5 h; dosed: 2-Methyltetrahydrofuran; 40 mg/kg; iv; Male; Harlan Sprague Dawley
Rat [2] = test: concentration in brain after dosing; conditions: 0.2 h; dosed: 2-Methyltetrahydrofuran; 40 mg/kg; iv; Male; Harlan Sprague Dawley
Rat [3] = test: concentration in brain after dosing; conditions: 0.2 h; dosed: 2-Methyltetrahydrofuran; 40 mg/kg; iv; Male; Harlan Sprague Dawley; remark: listed apart in the source
Rat [4] = test: concentration in plasma after dosing; conditions: 7 min; dosed: 2-Methyltetrahydrofuran; 40 mg/kg; iv; Male; Harlan Sprague Dawley
Rat [5] = test: concentration in brain after dosing; conditions: 2 min; dosed: 2-Methyltetrahydrofuran; 40 mg/kg; iv; Female; Harlan Sprague Dawley
Rat [6] = test: concentration in brain after dosing; conditions: 0.75 h; dosed: 2-Methyltetrahydrofuran; 40 mg/kg; iv; Male; Harlan Sprague Dawley
Rat [7] = test: concentration in brain after dosing; conditions: 4 h; dosed: 2-Methyltetrahydrofuran; 40 mg/kg; iv; Male; Harlan Sprague Dawley
Rat [8] = test: concentration in plasma after dosing; conditions: dosed: 678-39-7, 12 mg/kg, iv, Male, F344
Rat [9] = test: concentration in kidney after dosing; conditions: 6 h; dosed: Fluorotelomer alcohol 8+2; 24 mg/kg; oral; Male; Harlan Sprague Dawley
Rat [10] = test: concentration in brain after dosing; conditions: 6 h; dosed: Fluorotelomer alcohol 8+2; 24 mg/kg; oral; Male; Harlan Sprague Dawley
Rat [11] = test: concentration in kidney after dosing; conditions: 0.5 h; dosed: Fluorotelomer alcohol 8+2; 80 mg/kg; oral; Female; Harlan Sprague Dawley
Rat [12] = test: concentration in liver after dosing; conditions: 6 h; dosed: Fluorotelomer alcohol 8+2; 24 mg/kg; oral; Male; Harlan Sprague Dawley
Rat [13] = test: concentration in kidney after dosing; conditions: 1 h; dosed: Fluorotelomer alcohol 8+2; 24 mg/kg; oral; Male; Harlan Sprague Dawley
Rat [14] = test: concentration in plasma after dosing; conditions: dosed: 678-39-7, 40 mg/kg, iv, Female, Harlan Sprague-Dawley
Rat [15] = test: concentration in liver after dosing; conditions: 12 h; dosed: Perfluorohexanoic Acid; 80 mg/kg; oral; Male; Harlan Sprague Dawley
Rat [16] = test: concentration in plasma after dosing; conditions: dosed: Perfluorohexanoic Acid, 40 mg/kg, oral, Male, Harlan Sprague Dawley
Rat [17] = test: concentration in plasma after dosing; conditions: 0.25 h; dosed: Perfluorohexanoic Acid; 40 mg/kg; iv; Male; F344
Rat [18] = test: concentration in kidney after dosing; conditions: 12 h; dosed: Perfluorohexanoic Acid; 80 mg/kg; oral; Male; Harlan Sprague Dawley
Rat [19] = test: concentration in kidney after dosing; conditions: 3 h; dosed: Perfluorohexanoic Acid; 80 mg/kg; oral; Male; Harlan Sprague Dawley
Rat [20] = test: concentration in plasma after dosing; conditions: 0.75 h; dosed: Perfluorohexanoic Acid; 40 mg/kg; iv; Female; Harlan Sprague-Dawley
Rat [21] = test: concentration in plasma after dosing; conditions: dosed: Perfluorohexanoic Acid, 40 mg/kg, oral, Male, Harlan Sprague Dawley; remark: listed apart in the source
Rat [22] = test: concentration in kidney after dosing; conditions: 6 h; dosed: Perfluorohexanoic Acid; 80 mg/kg; oral; Male; Harlan Sprague Dawley
Rat [23] = test: concentration in plasma after dosing; conditions: 24 h; dosed: Gemfibrozil; 50 mg/kg; oral; Male; Sprague-Dawley
Rat [24] = test: concentration in plasma after dosing; conditions: 10 min; dosed: Gemfibrozil; 100 mg/kg; oral; Male; Sprague-Dawley
Rat [25] = test: concentration in plasma after dosing; conditions: 6 h; dosed: Gemfibrozil; 100 mg/kg; oral; Male; Sprague-Dawley
Rat [26] = test: concentration in plasma after dosing; conditions: 10 min; dosed: Gemfibrozil; 50 mg/kg; oral; Male; Sprague-Dawley
Rat [27] = test: concentration in kidney after dosing; conditions: 3360 h; dosed: Perfluorooctane Sulfonate; 2 mg/kg; oral; Female; Harlan Sprague Dawley
Rat [28] = test: concentration in plasma after dosing; conditions: dosed: Perfluorooctane Sulfonate, 2 mg/kg, iv, Female, Harlan Sprague-Dawley
Rat [29] = test: concentration in kidney after dosing; conditions: 864 h; dosed: Perfluorooctane Sulfonate; 2 mg/kg; oral; Female; Harlan Sprague Dawley
Rat [30] = test: concentration in kidney after dosing; conditions: 6 h; dosed: Perfluorooctane Sulfonate; 20 mg/kg; oral; Female; F344
Rat [31] = test: concentration in plasma after dosing; conditions: dosed: Perfluorooctane Sulfonate, 2 mg/kg, iv, Female, Harlan Sprague-Dawley; remark: listed apart in the source
Rat [32] = test: concentration in liver after dosing; conditions: 3360 h; dosed: Perfluorooctane Sulfonate; 20 mg/kg; oral; Male; Harlan Sprague Dawley
Rat [33] = test: concentration in liver after dosing; conditions: 6 h; dosed: Perfluorooctane Sulfonate; 2 mg/kg; oral; Female; Harlan Sprague Dawley

CC1CCCO1 (stereo not given) [2-Methyltetrahydrofuran]
Conditions	concentration in brain [ng/mL]	concentration in plasma [ng/mL]
Rat [1]	–	19300
Rat [2]	24100	–
Rat [3]	24900	–
Rat [4]	–	45700
Rat [5]	38000	–
Rat [6]	15800	–
Rat [7]	184	–

O=C(O)CCC(F)(F)C(F)(F)C(F)(F)C(F)(F)C(F)(F)C(F)(F)C(F)(F)F [Fluorotelomer acid 7+3]
concentration in plasma [ng/mL]
Conditions	0.5 h	0.75 h	9 h	12 h
Rat [8]	127	–	159	–
Rat [14]	–	1830	–	863

Conditions	concentration in brain [ng/g]	concentration in kidney [ng/g]	concentration in liver [ng/g]
Rat [9]	–	1250	–
Rat [10]	305	–	–
Rat [11]	–	435	–
Rat [12]	–	–	1860
Rat [13]	–	310	–

O=C(O)C(F)(F)C(F)(F)C(F)(F)C(F)(F)C(F)(F)F [Perfluorohexanoic Acid]
Conditions	concentration in kidney [ng/g]	concentration in liver [ng/g]	concentration in plasma [ng/mL]
Rat [15]	–	1910	–
Rat [17]	–	–	7150
Rat [18]	1180	–	–
Rat [19]	65000	–	–
Rat [20]	–	–	113
Rat [22]	10600	–	–

concentration in plasma [ng/mL]
Conditions	0.5 h	3 h	5 min	9 h
Rat [16]	59900	–	–	9200
Rat [21]	–	56400	32900	–

Cc1ccc(C)c(OCCCC(C)(C)C(=O)O)c1 [Gemfibrozil]
Conditions	concentration in plasma [ng/mL]
Rat [23]	754
Rat [24]	50400
Rat [25]	13800
Rat [26]	76500

O=S(=O)([O-])C(F)(F)C(F)(F)C(F)(F)C(F)(F)C(F)(F)C(F)(F)C(F)(F)C(F)(F)F [Perfluorooctane Sulfonate]
Conditions	concentration in kidney [ng/g]	concentration in liver [ng/g]
Rat [27]	1110	–
Rat [29]	1390	–
Rat [30]	133000	–
Rat [32]	–	29800
Rat [33]	–	24500

concentration in plasma [ng/mL]
Conditions	5 min	24 h	1200 h
Rat [28]	5510	3580	562
Rat [31]	5920	5370	–
